In article PMC2860105 (Science (New York, N.Y.), 2010):
Blank lines part the entries; values can stand above or below the compound they belong to.

Key:
[1] = test system: Vps34; assay: in vitro inhibition of Vps34; assay type: biochemical
[2] = biological target: p110γ (Homo sapiens, UniProt P48736); assay: in vitro inhibition of class I PI3K p110γ; assay type: biochemical
Sequence of p110γ (P48736 whole entry, species assumed): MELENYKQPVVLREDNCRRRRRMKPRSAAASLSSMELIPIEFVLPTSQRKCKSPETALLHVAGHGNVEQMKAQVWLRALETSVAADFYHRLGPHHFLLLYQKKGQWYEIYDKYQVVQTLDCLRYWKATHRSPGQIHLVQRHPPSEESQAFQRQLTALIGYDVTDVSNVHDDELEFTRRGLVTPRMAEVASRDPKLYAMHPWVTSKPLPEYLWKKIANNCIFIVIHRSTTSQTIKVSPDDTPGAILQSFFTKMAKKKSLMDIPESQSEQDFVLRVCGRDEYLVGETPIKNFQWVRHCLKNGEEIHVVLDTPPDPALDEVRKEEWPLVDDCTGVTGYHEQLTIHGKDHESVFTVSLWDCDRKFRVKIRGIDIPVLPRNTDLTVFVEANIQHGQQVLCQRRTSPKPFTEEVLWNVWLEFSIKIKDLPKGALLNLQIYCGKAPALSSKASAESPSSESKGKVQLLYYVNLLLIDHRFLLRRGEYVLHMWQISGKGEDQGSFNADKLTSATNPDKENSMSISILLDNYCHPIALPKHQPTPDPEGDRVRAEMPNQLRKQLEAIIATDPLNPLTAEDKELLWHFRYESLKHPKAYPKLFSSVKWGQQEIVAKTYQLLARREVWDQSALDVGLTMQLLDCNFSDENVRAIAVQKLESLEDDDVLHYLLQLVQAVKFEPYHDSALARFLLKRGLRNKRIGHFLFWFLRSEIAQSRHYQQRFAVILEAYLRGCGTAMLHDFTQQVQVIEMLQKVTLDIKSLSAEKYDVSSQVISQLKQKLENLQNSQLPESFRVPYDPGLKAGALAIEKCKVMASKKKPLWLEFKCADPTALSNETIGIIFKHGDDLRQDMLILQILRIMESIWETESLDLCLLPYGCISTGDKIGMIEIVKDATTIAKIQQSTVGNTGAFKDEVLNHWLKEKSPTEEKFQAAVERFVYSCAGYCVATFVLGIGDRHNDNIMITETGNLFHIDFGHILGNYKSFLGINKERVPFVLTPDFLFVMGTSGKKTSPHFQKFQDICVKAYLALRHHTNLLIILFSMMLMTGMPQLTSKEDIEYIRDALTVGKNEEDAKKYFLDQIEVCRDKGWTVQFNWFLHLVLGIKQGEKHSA

Structure (SMILES): Cn1cnc(N)c2ncnc1-2 [3-MA, 3-methyladenine, reference compound]
specificity for Vps34 versus other PI3Ks (in words) ([1]; in vitro assays, Fig. S8, Fig. 4G): preference for Vps34

Structure (SMILES): CC(=O)Nc1nc(C)c(-c2ccc(Cl)c(S(=O)(=O)NCCO)c2)s1 [PIK-93, reference compound]
IC50 of PIK-93 relative to PIK-90 (in words) ([1]; Fig. S8): lower IC50

increase in IC50 for PI3Kγ (p110γ) compared to PIK93 ([2]; ratio of IC50 values vs PIK93): > 10 fold
IC50 ([2]; read-out: IC50 for the most potently inhibited Class I PI3K (p110γ), in vitro, Fig. S9): 61 nM
change in IC50 relative to PIK-93 (in words) ([1]; analogues of PIK-93, Fig. S9): little change in IC50
IC50 ([1]; read-out: IC50 for Vps34, in vitro, Fig. S9): 88 nM
Structure (SMILES): COc1ccc(-c2sc(NC(C)=O)nc2C)cc1S(=O)(=O)NCCO [PT21]
